Experimental data as given in ChEMBL document CHEMBL2429812, “Exploring multitarget interactions to reduce opiate withdrawal syndrome and psychiatric comorbidity” (ACS Med Chem Lett, 2013).
Calls of active or inactive are those of the source. The rule behind the calls is not given here.

How the values were obtained:
[1] = biological target: T1, Alpha-2C adrenergic receptor (Homo sapiens) (UniProt P18825); test: Agonist activity at human alpha2C AR assessed as intrinsic activity
T1 sequence (whole entry): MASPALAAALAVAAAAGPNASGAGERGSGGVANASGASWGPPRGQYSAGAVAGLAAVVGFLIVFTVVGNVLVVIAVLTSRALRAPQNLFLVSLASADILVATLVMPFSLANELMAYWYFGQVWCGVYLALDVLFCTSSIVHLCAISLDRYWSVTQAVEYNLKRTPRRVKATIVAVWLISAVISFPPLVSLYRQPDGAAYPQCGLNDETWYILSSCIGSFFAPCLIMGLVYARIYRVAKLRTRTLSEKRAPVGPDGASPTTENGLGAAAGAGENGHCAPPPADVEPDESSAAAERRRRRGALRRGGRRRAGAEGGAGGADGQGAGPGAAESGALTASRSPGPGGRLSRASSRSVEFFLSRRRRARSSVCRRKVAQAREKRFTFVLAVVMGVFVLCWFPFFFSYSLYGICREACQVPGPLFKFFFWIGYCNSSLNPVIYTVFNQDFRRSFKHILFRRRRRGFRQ

[2] = biological target: T2, Alpha-2B adrenergic receptor (Homo sapiens) (UniProt P18089); test: Agonist activity at human alpha2B AR assessed as intrinsic activity
T2 sequence (whole entry): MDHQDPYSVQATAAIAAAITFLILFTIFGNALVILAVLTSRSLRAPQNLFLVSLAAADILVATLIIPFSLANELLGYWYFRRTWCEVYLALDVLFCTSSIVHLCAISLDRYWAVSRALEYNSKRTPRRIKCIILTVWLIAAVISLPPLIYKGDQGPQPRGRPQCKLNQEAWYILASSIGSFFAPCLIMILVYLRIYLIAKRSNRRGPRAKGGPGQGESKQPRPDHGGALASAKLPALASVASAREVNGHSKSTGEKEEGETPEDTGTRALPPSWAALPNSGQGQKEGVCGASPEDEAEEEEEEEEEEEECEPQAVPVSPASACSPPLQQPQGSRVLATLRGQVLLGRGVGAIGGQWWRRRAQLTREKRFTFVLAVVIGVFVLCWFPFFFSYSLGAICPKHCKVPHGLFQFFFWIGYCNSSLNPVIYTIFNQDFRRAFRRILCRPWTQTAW

[3] = biological target: T3, 5-hydroxytryptamine receptor 1A (Homo sapiens) (UniProt P08908); test: Agonist activity at human 5HT1A receptor
T3 sequence (whole entry): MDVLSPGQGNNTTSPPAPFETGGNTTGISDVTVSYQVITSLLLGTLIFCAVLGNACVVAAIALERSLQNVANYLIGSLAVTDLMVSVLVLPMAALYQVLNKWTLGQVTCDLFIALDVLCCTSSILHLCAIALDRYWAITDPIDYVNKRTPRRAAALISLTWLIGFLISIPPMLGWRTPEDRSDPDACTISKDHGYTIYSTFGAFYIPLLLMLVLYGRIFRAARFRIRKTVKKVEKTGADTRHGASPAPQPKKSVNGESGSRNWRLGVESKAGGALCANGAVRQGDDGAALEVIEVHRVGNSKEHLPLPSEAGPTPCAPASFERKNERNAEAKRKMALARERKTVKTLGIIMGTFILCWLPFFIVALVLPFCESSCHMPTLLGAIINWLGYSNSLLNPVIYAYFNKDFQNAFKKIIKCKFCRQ

[4] = biological target: T4, Alpha-2A adrenergic receptor (Homo sapiens) (UniProt P08913); test: Antagonist activity at human alpha2A AR
T4 sequence (whole entry): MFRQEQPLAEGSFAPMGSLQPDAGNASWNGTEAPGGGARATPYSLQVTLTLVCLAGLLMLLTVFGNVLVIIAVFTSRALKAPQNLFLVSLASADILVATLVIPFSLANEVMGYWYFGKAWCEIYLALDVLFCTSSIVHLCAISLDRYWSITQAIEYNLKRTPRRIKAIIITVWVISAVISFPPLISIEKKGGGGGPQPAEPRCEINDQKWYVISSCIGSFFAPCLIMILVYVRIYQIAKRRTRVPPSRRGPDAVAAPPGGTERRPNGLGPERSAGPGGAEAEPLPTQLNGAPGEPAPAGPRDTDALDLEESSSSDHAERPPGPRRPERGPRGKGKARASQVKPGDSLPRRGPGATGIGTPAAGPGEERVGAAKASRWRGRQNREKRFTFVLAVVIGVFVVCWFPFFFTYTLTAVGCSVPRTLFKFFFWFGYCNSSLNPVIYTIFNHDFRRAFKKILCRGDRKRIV

[5] = biological target: T3, 5-hydroxytryptamine receptor 1A (Homo sapiens); test: Agonist activity at human 5HT1A receptor assessed as intrinsic activity
[6] = Binding affinity to I2 imidazoline binding site in rat brain membrane; type: cell membranes
[7] = biological target: T5, 5-hydroxytryptamine receptor 1A (Homo sapiens, UniProt P08908); test: Binding affinity at human 5HT1A receptor
T5 sequence (P08908 whole entry): T3 sequence (whole entry)

[8] = biological target: T6, Alpha-2C adrenergic receptor (Homo sapiens, UniProt P18825); test: Binding affinity at human alpha2C AR
T6 sequence (P18825 whole entry): T1 sequence (whole entry)

[9] = biological target: T7, Alpha-2B adrenergic receptor (Homo sapiens, UniProt P18089); test: Binding affinity at human alpha2B AR
T7 sequence (P18089 whole entry): T2 sequence (whole entry)

[10] = biological target: T8, Alpha-2A adrenergic receptor (Homo sapiens, UniProt P08913); test: Binding affinity at human alpha2A AR
T8 sequence (P08913 whole entry): T4 sequence (whole entry)

[11] = biological target: T6, Alpha-2C adrenergic receptor; test: Agonist activity at human alpha2C AR
[12] = biological target: T7, Alpha-2B adrenergic receptor; test: Agonist activity at human alpha2B AR
Mus musculus [13] = test: Antidepressant-like activity in mouse assessed as reduction in immobility time at 10 mg/kg, ip by forced swimming test; type: functional, organism-based; set-up: dose 10 mg/kg
Mus musculus [14] = test: Reduction in morphine dependence expression in mouse assessed as decrease in expression of naloxone-precipitated withdrawal syndrome measuring jumping at 5 mg/kg, ip; type: functional; set-up: scale not given: the % may be the effect or the level left; conditions: route intraperitoneal
Mus musculus [15] = test: Reduction in morphine dependence expression in mouse assessed as decrease in expression of naloxone-precipitated withdrawal syndrome measuring somatic signs at 5 mg/kg, ip; type: functional; set-up: scale not given: the % may be the effect or the level left; conditions: route intraperitoneal
Mus musculus [16] = test: Antidepressant-like activity in mouse assessed as reduction in immobility time at 5 mg/kg, ip by forced swimming test in presence of idazoxan; type: functional, organism-based; set-up: dose 5 mg/kg
Mus musculus [17] = test: Antidepressant-like activity in mouse assessed as reduction in immobility time at 5 mg/kg, ip by forced swimming test in presence of WAY 100635; type: functional, organism-based; set-up: dose 5 mg/kg
Mus musculus [18] = test: Antidepressant-like activity in mouse assessed as reduction in immobility time at 1 to 20 mg/kg, ip by forced swimming test; type: functional, organism-based
Mus musculus [19] = test: Antidepressant-like activity in mouse assessed as reduction in immobility time at 5 mg/kg, ip by forced swimming test; type: functional; set-up: scale not given: the % may be the effect or the level left; conditions: route intraperitoneal
Mus musculus [20] = test: Antidepressant-like activity in mouse assessed as reduction in immobility time at 0.05 mg/kg, ip by forced swimming test; type: functional, organism-based; set-up: dose 0.05 mg/kg
Mus musculus [21] = test: Antidepressant-like activity in mouse assessed as reduction in immobility time at 20 mg/kg, ip by forced swimming test; type: functional, organism-based; set-up: dose 20 mg/kg
Mus musculus [22] = test: Reduction in morphine dependence expression in ip dosed mouse assessed as dosed required for decrease in expression of naloxone-precipitated withdrawal syndrome; type: functional
Mus musculus [23] = test: Antidepressant-like activity in ip dosed mouse assessed as dosed required for reduction in immobility time by forced swimming test; type: functional
[24] = biological target: T3, 5-hydroxytryptamine receptor 1A (Homo sapiens); test: Agonist activity at human 5HT1A receptor relative to control
Mus musculus [25] = test: Antidepressant-like activity in mouse assessed as reduction in immobility time at 0.025 mg/kg, ip by forced swimming test; type: functional, organism-based; set-up: dose 0.025 mg/kg
[26] = biological target: T2, Alpha-2B adrenergic receptor (Homo sapiens)

SMILES	Intrinsic activity [1]	Intrinsic activity [2]	pD2 [3]	pKb [4]	pKi [6]	Ki [7]	Ki [8]	Ki [9]	Ki [10]	other results
C=CCc1ccccc1O[C@@H](C)C1=NCCN1	0.9	0.65	7.19	7.8	–	–	–	–	–	–
Brc1ccccc1OCC1=NCCN1	–	–	–	6.72	7.9	562 nM	398 nM	617 nM	95.5 nM	Intrinsic activity [5]: 0.88; EC50 [11]: 97.7 nM; EC50 [12]: 1260 nM
CCCc1ccccc1OCC1=NCCN1	–	–	–	6.28	8.25	79.4 nM	490 nM	550 nM	49 nM	Intrinsic activity [5]: 0.9; Activity (Mus musculus [13]): Active; EC50 [11]: 155 nM; EC50 [12]: 2510 nM
C=CCc1ccccc1OCC1=NCCN1	–	–	–	6.5	8.88	70.8 nM	70.8 nM	708 nM	126 nM	Intrinsic activity [5]: 0.73; Activity (Mus musculus [14]): >50%; Activity (Mus musculus [15]): >50%; Activity (Mus musculus [16]): inactive; Activity (Mus musculus [17]): Active; Activity (Mus musculus [18]): Active; Activity (Mus musculus [19]): 50%; Activity (Mus musculus [20]): inactive; EC50 [11]: 61.7 nM; EC50 [12]: 977 nM
CC(Oc1ccccc1Br)C1=NCCN1 (centres undefined)	0.87	0.4	–	7.04	< 6	148 nM	–	–	–	–
CNCCC(Oc1ccc(C(F)(F)F)cc1)c1ccccc1 (centres undefined)	–	–	–	–	–	–	–	–	–	Activity (Mus musculus [21]): Active
CC(Oc1ccccc1OC1CC1)C1=NCCN1 (centres undefined)	0.7	0.6	–	6.9	< 6	14.8 nM	–	–	–	–
c1ccc2oc(C3=NCCN3)cc2c1	–	–	–	–	8.89	–	26900 nM	26900 nM	26900 nM	Activity (Mus musculus [22]): 19 mg/kg; Activity (Mus musculus [23]): 10 mg/kg
CCCc1ccccc1OC(C)C1=NCCN1 (centres undefined)	0.75	0.6	7.08	7.05	< 6	13.8 nM	148 nM	537 nM	50.1 nM	Emax [24]: 118%; EC50 [11]: 25.1 nM; EC50 [12]: 5010 nM
C[C@@H](Oc1ccccc1C1CC1)C1=NCCN1	0.5	–	< 5	6.9	–	–	–	–	–	Activity (Mus musculus [25]): inactive; pEC50 [26]: inactive
C=CCc1ccccc1OC(C)C1=NCCN1 (centres undefined) [ALLYPHENYLINE]	0.9	–	6.86	7.4	< 6	–	–	–	–	Activity (Mus musculus [20]): Active; pEC50 [26]: inactive
c1ccc(OCC2=NCCN2)c(CC2CC2)c1	–	–	–	6.35	6.9	83.2 nM	631 nM	501 nM	77.6 nM	Intrinsic activity [5]: 0.8; EC50 [11]: 234 nM; EC50 [12]: 1700 nM
c1ccc(OC2CC2)c(OCC2=NCCN2)c1	–	–	–	6.22	< 6	79.4 nM	794 nM	794 nM	316 nM	Intrinsic activity [5]: 1; EC50 [11]: 1000 nM; EC50 [12]: 3160 nM
c1ccc(C2CC2)c(OCC2=NCCN2)c1 [CIRAZOLINE]	–	–	–	6.4	8.35	34.7 nM	–	–	–	Intrinsic activity [5]: 0.8
CC(Oc1ccccc1CC1CC1)C1=NCCN1 (centres undefined) [CYCLOMETHYLINE]	0.8	0.7	–	–	< 6	–	–	–	–	Activity (Mus musculus [20]): Active
C[C@H](Oc1ccccc1CC1CC1)C1=NCCN1	0.85	0.7	–	–	–	–	–	–	–	–
C[C@@H](Oc1ccccc1CC1CC1)C1=NCCN1	0.75	0.65	–	–	–	–	–	–	–	–
C=CCc1ccccc1O[C@H](C)C1=NCCN1	0.5	–	< 5	7.4	–	–	–	–	–	pEC50 [26]: inactive
c1ccc2oc(-c3ncc[nH]3)cc2c1	–	–	–	–	–	–	–	–	–	Activity (Mus musculus [22]): 20 mg/kg
CC(Oc1ccccc1C1CC1)C1=NCCN1 (centres undefined)	0.9	0.7	7.24	7	< 6	7.24 nM	–	–	–	Activity (Mus musculus [20]): Active; Emax [24]: 92%
C[C@H](Oc1ccccc1C1CC1)C1=NCCN1	0.9	0.65	7.86	7.7	–	6.03 nM	–	–	–	Activity (Mus musculus [25]): Active; Emax [24]: 102%
